Measured values taken from patent publication EP1066315B1 (University of Dundee, priority 1998, dated 2008).
“Also recorded” adds a separate entry of the source. Each block holds one compound with its values, some of them ahead of it. Non-standard residues stand in square brackets, D forms with d. Residues, ends and D or L forms follow the SMILES beside them. *: point of attachment. Sta = CC(C)C[C@H](N)[C@@H](O)CC(=O)O; Isovaleryl = CC(C)CC(=O)*

Experiments:
[1] = molecular target: T1, disrupted lysosomes isolated from the human B cell line EDR (TTCF processing activity) (Homo sapiens, UniProt Q99538); experiment: Digestion of TTCF by disrupted B cell lysosomes, SDS-PAGE readout; type: biochemical; conditions: 4 hours at 37°C, Fig 1a; for inhibition of lysosomal digestion of TTCF: inhibitor at 0.1 mg/ml, pH 4.5
T1 construct: disrupted lysosomes isolated from the human B cell line EDR; endogenous in cells; host or cells: human B cell line EDR, Percoll-gradient lysosomal fraction, disrupted
T1 sequence (Q99538 26-323 limits assumed): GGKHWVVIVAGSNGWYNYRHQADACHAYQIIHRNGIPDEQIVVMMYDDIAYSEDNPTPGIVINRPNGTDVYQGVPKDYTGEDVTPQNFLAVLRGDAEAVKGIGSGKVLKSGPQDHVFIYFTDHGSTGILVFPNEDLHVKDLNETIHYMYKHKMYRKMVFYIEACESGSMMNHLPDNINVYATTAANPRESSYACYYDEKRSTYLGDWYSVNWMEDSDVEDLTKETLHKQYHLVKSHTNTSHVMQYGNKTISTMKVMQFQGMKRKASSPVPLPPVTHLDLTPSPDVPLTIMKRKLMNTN
Protocol: The invention will now be described by reference to the following Examples and Figures wherein • Figure 1: Processing of TTCF by a leupeptin-insensitive cysteine endopeptidase activity. (a) TTCF was digested in vitro in the presence of disrupted lysosomes (1-2 µg) in the presence or absence of iodoacetamide (1 mM), leupeptin, E64 or pepstatin (each at 0.1 mg/ml). Digestions were in 0.1 M NH4 acetate at pH 4.5 or Na2HPO4, pH 6.0 or 7.0. After 4 hours at 37°C, the reactions were separated by Tris-tricine SDS-PAGE and stained with Coomassie Blue. (b) Cleavage sites: TTCF digestion products were separated by SDS PAGE and electrophoretically transferred to nitrocellulose membrane. Individual fragments numbered 1-6 were subjected to 5 cycles of Edman degradation. N-terminal sequence obtained is shown in bold following upstream residues from TTCF (tetanus toxin numbering). The N-terminal sequence of His-tagged TTCF was obtained for fragments 1 and 3. (c) Residues Asn 1184 and Glu 1184 in TTCF were mutated to alanine (see Methods) and digestions performed as before. The mutation abolishes cleavage at the mutated site but not at the first site (doublet at 47 kD). In this experiment cleavage of the third site was minimal. • Figure 2: TTCF is processed by an asparaginyl endopeptidase. (a) Chromatography of the TTCF processing activity on Mono-S resin. Fractions eluted by NaCl gradient were incubated with the substrates Z-Ala-Ala-Asn-NHMec or Z-Phe-Arg-NHMec in the presence or absence of E64 (trans-epoxysuccinyl-L-leucylamido-(4-guanidino)butane). […] (b) Fractions as above were incubated with 10 µg TTCF in the presence or absence of E64 for 4 hours at 37°C prior to SDS-PAGE analysis. (c) Each fraction was analysed by SDS-PAGE and Western blotting. Electrophoretically transferred material was probed with an affinity purified antiserum raised against the peptide KGIGSGKVLKSGPQC from human legumain^1. • Figure 3: Peptide inhibitors of AEP block asparaginyl endopeptidase activity and TTCF processing in vitro and in vivo. (a) TTCF was digested with purified AEP (legumain from pig kidney) in the presence or absence of 0.2 mg/ml of the peptides indicated. […] (b) Purified AEP or a crude lysosomal protease mixture were incubated with Z-Ala-Ala-Asn-NHMec, Z-Phe-Arg-NHMec (cathepsins L&B) or Z-Val-Val-Ala NHMec (cathepsin S) in the presence of increasing concentrations of AENK or AEQK. Release of 7-amino-4-methyl coumarin was measured after 10, 20 or 30 minutes. […] At different times the cells were washed, fixed in 0.05 % glutaraldehyde and co-cultured with autologous TTCF specific T cell clones. […] Proteins obtained from commercial sources, as described in the literature or custom peptides were digested with purified pig kidney legumain at pH 5.5 in the presence of 1 mM DTT. […] When present peptide was maintained during antigen pulsing at 1 mg/ml (a) or 2 mg/ml (b). At different times the cells were washed, fixed in 0.05 % glutaraldehyde and antigen presentation measured using proliferation of different autologous TTCF-specific T cell clones. c, AEP pre-processing of TTCF speeds antigen presentation. […] Presentation was measured after 60 minutes of antigen pulsing using EBV B cells.
[…]. […] Nor could we reproduce the lysosomal TTCF digestion pattern or indeed generate any of these fragments using purified cathepsins L, S, B, D or E , all of which have been implicated in the class II MHC antigen processing pathway (reviewed in refs 5 & 6).
TTCF processing activity. Lysosomal fractions from the human B cell line EDR were prepared on 27 % Percoll density gradients as previously described^8 using ^125I-labelled transferrin (internalised for 30 minutes at 37°C) and β-hexosaminidase to identify endosomal/plasma membrane and lysosomal fractions respectively. The peak of lysosomes was collected by centrifugation at 40,000 g for 1 hour, removed from the underlying Percoll pellet, collected again at 50,000 g for 1 hour and stored frozen. […]

[2] = tested on: Asparagine endopeptidase (AEP); experiment: AEP
[3] = Mono-S fractions of the partially purified TTCF processing activity from a crude B cell lysosome fraction; conditions: human, 37°C, up to 4 hours
AEP = experiment: Purified AEP; conditions: up to 30 minutes
[4] = B cell lysosomal fractions (crude lysosomal protease mixture); conditions: human, up to 30 minutes
[5] = crude lysosomal protease mixture (B cell lysosomal fractions); conditions: human, up to 30 minutes

Compound: NC(=O)CI [iodoacetamide]
sensitivity of lysosomal TTCF digestion activity to inhibitor ([1]; iodoacetamide 1 mM): sensitive

Compound: CC(=O)N[C@@H](CC(C)C)C(=O)N[C@@H](CC(C)C)C(=O)N[C@H](C=O)CCCNC(=N)N [leupeptin, acetyl-leucyl-leucyl-arginal]
inhibition of lysosomal digestion of TTCF [1]: could not inhibit; also recorded: completely resistant

Compound: CC(C)CC(=O)N[C@H](C(=O)N[C@H](C(=O)N[C@@H](CC(C)C)[C@@H](O)CC(=O)N[C@@H](C)C(=O)N[C@@H](CC(C)C)[C@@H](O)CC(=O)O)C(C)C)C(C)C [pepstatin] (Isovaleryl-VV[Sta]A[Sta]-OH)
inhibition of lysosomal digestion of TTCF [1]: could not inhibit

Compound: Z-Phe-Arg-NHMec
cleaved bond [4]: Arg-NHMec | cleaved bond [5]: Arg-NHMec

Continued, in another order:

cleaved bond [2]: N637-F638
Compound: QQQHLFGSN(CHO)VTDCSGNFCLFR
not cleaved [2]: fragments VTDCSGNFCLFR and QQQHLFGSN(CHO) not observed

cleaved bond [2]: N630-V631; also recorded: N637-F638
Compound: QQQHLFGSNVTDCSGNFCLFRKKK

cleaved bond [3]: Asn-7-(4-methyl)coumarylamide | cleaved bond (AEP): Asn-NHMec, 10 minutes
Compound: Z-Ala-Ala-Asn-7-(4-methyl)coumarylamide

cleaved bond [4]: Asn-NHMec
Compound: Z-Val-Ala-Asn-NHMec
